Earlier results as cited in patent US20240343692A1 (priority 2021, published 2024).
Read-outs that look alike come from different tables or passages of the source. Marks after values point to notes of the source that are not given here.

Tests used:
[1] = target: Opiate κ (Homo sapiens, UniProt P41145); settings: 10 μM; data from ref. 34; cited from earlier work
[2] = target: Dopamine D2L (Homo sapiens, UniProt P14416); settings: 10 μM; data from ref. 34; cited from earlier work
[3] = target: T1, Muscarinic M5 (Homo sapiens, UniProt P08912); settings: 10 μM; data from ref. 34; cited from earlier work
T1 sequence (P08912 1-532): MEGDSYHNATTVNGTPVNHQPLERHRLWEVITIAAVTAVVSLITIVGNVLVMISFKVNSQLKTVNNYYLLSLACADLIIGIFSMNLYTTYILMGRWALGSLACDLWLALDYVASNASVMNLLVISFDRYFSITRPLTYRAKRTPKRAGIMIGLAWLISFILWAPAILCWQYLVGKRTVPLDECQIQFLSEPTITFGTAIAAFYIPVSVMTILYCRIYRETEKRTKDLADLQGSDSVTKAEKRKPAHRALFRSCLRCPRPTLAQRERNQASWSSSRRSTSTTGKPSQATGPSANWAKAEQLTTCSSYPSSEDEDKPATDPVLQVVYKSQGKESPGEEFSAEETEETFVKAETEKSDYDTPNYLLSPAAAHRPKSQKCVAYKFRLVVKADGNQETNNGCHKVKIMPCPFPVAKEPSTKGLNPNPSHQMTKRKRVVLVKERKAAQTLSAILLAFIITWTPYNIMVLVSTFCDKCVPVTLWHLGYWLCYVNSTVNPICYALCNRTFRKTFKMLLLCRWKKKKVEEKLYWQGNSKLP

[4] = target: Dopamine D3 (Homo sapiens, UniProt P35462); settings: 10 μM; data from ref. 34; cited from earlier work
Chain of Dopamine D3 (P35462 whole entry): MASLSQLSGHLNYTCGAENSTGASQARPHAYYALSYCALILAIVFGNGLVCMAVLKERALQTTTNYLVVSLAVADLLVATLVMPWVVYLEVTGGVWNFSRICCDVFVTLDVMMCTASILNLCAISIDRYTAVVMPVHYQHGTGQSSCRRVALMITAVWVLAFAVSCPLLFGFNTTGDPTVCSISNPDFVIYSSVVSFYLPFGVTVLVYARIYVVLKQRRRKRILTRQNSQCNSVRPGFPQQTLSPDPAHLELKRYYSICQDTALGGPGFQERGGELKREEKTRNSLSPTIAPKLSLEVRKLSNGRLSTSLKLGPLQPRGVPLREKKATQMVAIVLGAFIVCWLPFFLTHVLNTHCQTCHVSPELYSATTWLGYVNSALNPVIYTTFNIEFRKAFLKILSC

[5] = target: Nicotinic Acetylcholine α4β2 (Homo sapiens, UniProt P17787+P43681); settings: 10 μM; data from ref. 34; cited from earlier work
Chain of Nicotinic Acetylcholine α4β2 (P43681 29-627 limits assumed): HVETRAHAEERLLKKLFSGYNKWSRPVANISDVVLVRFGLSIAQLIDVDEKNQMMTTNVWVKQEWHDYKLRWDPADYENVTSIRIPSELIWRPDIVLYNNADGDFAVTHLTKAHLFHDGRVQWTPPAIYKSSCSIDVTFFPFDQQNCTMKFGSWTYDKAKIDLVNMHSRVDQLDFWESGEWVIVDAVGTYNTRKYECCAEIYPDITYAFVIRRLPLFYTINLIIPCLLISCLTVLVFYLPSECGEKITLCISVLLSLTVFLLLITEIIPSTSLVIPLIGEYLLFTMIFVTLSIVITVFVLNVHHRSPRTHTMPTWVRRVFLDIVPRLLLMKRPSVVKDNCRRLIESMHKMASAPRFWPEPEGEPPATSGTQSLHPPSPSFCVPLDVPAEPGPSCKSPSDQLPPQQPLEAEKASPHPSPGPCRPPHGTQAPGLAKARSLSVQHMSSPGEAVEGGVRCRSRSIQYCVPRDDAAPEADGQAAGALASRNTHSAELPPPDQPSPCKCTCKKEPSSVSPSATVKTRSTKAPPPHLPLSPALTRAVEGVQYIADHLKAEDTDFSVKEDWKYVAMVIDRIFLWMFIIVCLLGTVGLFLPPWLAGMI
Chain of Nicotinic Acetylcholine α4β2 (P17787 26-502): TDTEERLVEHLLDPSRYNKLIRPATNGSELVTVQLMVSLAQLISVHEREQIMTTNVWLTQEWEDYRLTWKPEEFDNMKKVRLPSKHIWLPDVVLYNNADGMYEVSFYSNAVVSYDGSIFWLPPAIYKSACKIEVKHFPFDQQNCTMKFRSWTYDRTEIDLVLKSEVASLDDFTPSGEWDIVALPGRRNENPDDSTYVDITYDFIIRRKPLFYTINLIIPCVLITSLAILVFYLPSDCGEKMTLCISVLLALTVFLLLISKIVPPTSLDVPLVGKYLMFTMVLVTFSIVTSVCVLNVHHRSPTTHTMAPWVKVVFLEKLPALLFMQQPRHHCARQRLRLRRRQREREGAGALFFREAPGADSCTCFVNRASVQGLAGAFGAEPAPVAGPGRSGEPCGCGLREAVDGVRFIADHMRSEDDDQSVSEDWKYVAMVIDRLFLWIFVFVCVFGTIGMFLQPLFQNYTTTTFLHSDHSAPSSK

[6] = target: Dopamine D1 (Homo sapiens, UniProt P21728); settings: 10 μM; data from ref. 34; cited from earlier work
Chain of Dopamine D1 (P21728 whole entry): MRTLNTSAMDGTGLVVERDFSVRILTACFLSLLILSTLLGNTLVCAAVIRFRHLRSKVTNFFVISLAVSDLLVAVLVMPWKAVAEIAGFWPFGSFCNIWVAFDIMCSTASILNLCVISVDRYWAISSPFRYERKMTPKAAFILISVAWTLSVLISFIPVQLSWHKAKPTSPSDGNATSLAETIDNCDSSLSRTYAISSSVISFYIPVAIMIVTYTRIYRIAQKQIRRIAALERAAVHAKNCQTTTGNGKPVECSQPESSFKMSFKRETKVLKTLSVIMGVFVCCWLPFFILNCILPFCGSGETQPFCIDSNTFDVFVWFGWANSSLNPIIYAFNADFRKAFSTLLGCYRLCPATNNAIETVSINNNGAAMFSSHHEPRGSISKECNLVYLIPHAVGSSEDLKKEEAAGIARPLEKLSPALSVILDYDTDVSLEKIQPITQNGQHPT

[7] = tested on: GABAA; settings: 10 μM; rat receptor data; data from ref. 34; cited from earlier work
[8] = target: T2, Serotonin 5-HT2A (Homo sapiens, UniProt P28223); settings: 10 μM; data from ref. 34; cited from earlier work
T2 sequence (P28223 whole entry, looked up): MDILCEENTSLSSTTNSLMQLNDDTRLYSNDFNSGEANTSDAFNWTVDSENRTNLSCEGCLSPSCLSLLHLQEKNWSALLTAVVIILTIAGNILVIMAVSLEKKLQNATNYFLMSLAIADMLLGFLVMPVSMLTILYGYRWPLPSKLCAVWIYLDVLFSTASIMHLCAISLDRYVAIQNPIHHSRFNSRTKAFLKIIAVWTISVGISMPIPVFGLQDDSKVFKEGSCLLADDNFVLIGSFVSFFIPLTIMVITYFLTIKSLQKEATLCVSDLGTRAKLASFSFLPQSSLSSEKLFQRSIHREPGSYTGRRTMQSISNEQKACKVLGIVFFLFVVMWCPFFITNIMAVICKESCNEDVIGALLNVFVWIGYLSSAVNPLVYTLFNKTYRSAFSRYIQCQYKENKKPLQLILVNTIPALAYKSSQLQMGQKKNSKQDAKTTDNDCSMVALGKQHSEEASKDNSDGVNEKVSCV

[9] = target: T3, Muscarinic M2 (Homo sapiens, UniProt P08172); settings: 10 μM; data from ref. 34; cited from earlier work
T3 sequence (P08172 1-466): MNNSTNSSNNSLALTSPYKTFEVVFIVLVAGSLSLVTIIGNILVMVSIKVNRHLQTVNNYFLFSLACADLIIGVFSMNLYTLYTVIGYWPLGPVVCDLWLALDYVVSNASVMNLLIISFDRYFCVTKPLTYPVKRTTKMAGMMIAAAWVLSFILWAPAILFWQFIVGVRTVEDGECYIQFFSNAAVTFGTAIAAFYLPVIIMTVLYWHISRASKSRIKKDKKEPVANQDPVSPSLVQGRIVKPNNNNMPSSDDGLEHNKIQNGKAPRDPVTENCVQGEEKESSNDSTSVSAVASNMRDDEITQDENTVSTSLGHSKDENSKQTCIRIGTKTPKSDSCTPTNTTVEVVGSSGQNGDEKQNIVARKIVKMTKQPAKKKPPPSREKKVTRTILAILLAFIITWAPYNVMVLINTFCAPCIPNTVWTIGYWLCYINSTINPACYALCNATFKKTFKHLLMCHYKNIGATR

[10] = tested on: Adrenergic α1; settings: 10 μM; rat receptor data; data from ref. 35; cited from earlier work
[11] = target: T2, Serotonin 5-HT2A; settings: data from ref. 36; read-out: activation potency EC50, Serotonin 5-HT2A; cited from earlier work
[12] = target: Sigma-1 (Homo sapiens, UniProt Q99720)
Chain of Sigma-1 (Q99720 whole entry): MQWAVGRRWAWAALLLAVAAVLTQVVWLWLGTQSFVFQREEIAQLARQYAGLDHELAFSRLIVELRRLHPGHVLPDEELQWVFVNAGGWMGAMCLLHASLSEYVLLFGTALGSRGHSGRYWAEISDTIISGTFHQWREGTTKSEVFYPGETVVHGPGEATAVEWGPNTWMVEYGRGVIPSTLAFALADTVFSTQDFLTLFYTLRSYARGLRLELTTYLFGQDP

[13] = target: T4, Serotonin 5-HT1A (Homo sapiens, UniProt P08908); settings: read-out: inhibition constants Ki, Serotonin 5-HT1A; data from ref. 36; cited from earlier work
T4 sequence (P08908 1-422): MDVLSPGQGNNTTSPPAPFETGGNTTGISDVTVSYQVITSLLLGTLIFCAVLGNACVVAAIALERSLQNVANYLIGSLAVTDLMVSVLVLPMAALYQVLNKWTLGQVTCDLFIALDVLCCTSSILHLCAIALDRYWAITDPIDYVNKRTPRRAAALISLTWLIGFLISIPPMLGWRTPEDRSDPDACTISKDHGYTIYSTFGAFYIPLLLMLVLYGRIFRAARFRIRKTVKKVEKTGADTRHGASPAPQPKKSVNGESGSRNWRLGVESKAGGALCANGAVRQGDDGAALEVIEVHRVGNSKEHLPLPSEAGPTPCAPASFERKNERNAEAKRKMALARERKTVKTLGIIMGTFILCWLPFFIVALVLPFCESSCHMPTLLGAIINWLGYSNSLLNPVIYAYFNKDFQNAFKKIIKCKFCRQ

Chain of Dopamine D2L (P14416 whole entry): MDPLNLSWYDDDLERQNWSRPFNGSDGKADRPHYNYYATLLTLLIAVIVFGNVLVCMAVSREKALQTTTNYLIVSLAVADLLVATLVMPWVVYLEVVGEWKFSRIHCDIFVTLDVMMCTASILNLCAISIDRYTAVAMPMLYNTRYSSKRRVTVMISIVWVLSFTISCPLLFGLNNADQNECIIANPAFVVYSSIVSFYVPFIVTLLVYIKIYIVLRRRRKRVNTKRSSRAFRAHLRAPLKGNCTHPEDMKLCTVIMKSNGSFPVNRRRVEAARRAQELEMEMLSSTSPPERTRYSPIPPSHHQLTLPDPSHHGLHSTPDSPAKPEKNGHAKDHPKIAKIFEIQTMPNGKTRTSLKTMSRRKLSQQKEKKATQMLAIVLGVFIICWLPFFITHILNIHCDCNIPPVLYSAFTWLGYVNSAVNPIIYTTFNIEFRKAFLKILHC
Chain of Opiate κ (P41145 whole entry): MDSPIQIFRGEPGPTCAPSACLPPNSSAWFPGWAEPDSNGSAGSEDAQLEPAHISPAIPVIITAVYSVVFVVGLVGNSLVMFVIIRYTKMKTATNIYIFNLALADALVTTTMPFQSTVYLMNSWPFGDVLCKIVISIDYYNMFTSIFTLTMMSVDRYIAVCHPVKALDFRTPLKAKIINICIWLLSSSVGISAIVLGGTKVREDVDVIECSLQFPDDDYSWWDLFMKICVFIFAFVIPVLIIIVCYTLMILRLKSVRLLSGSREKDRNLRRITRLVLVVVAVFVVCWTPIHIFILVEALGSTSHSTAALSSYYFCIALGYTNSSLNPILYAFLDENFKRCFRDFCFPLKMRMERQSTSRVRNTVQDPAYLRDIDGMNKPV

SMILES: CCN(CC)C(=O)[C@@H]1C=C2c3cccc4[nH]cc(c34)C[C@H]2N(C)C1 [D-LSD, D-lysergic acid diethylamide]
- Percent Inhibition of Specific Binding of a Radioligand Standard, Opiate κ [1]: 29 % inh
- Percent Inhibition of Specific Binding of a Radioligand Standard, Dopamine D2L [2]: 85 % inh
- Percent Inhibition of Specific Binding of a Radioligand Standard, Muscarinic M5 [3]: 15 % inh
- Percent Inhibition of Specific Binding of a Radioligand Standard, Dopamine D3 [4]: 78 % inh
- Percent Inhibition of Specific Binding of a Radioligand Standard, Nicotinic Acetylcholine α4β2 [5]: 0 % inh
- Percent Inhibition of Specific Binding of a Radioligand Standard, Dopamine D1 [6]: 93 % inh
- Percent Inhibition of Specific Binding of a Radioligand Standard, GABAA [7]: 0 % inh
- Percent Inhibition of Specific Binding of a Radioligand Standard, Serotonin 5-HT2A [8]: 93 % inh
- Percent Inhibition of Specific Binding of a Radioligand Standard, Muscarinic M2 [9]: 2 % inh
- Percent Inhibition of Specific Binding of a Radioligand Standard, Adrenergic α1 [10]: 100^d % inh

SMILES: CN(C)CCc1c[nH]c2ccccc12 [DMT]
- EC50 [11]: 76 nM
- Ki ([12]; data from ref. 37; read-out: inhibition constants Ki, Sigma-1; cited from earlier work): 5200 nM

SMILES: CN(C)CCc1c[nH]c2cccc(O)c12 [Psilocin]
- Ki ([12]; read-out: inhibition constants Ki, Sigma-1; data from ref. 37; cited from earlier work): > 10000 nM
- Ki [13]: 123 nM
